These results are taken from paper PMC10299677, “Fluorinated Benzofuran and Dihydrobenzofuran as Anti-Inflammatory and Potential Anticancer Agents” (International Journal of Molecular Sciences, 2023).

In series [1] the test system is COX-2 protein expression. In words: COX-2 protein expression in LPS-treated macrophages (Western blot). It counts as cell-based, C57BL/6J mice. As to conditions: 10 µM for compounds 1, 7, 9, 50 µM for others, LPS 24 h. As to the method:
Figure 4 Effects of the fluorinated benzofuran and dihydrobenzofuran on COX-2 and NOS2 protein expressions. COX-2 and NOS2 protein expressions were assessed in macrophages incubated with only 10 µM for compounds 1, 7, and 9, and 50 µM for the other compounds, for 30 min prior to the addition of 10 ng/mL LPS for 24 h. β-actin was used as a loading control, and densitometric analysis was performed using ImageJ software (NIH, MA). Data are expressed as fold of LPS-treated macrophages and represented as mean ± SEM of 4 different experiments; * p < 0.05 versus LPS (one-way ANOVA followed by Dunnett’s test).
Macrophages were incubated with the compounds for 30 min prior to the addition of 10 ng/mL LPS for 24 h. Protein levels for COX-2 and NOS2 were detected in LPS-stimulated macrophages. As previously described, 10 µg of total protein was assessed. The primary antibodies were developed and characterized as previously described: for COX-2, mouse monoclonal antibody anti-COX-2 (clone COX-214, 1/5000); for NOS2, rabbit polyclonal antibody anti-NOS2 (dilution1/2000 [33]). Antibodies anti-phospho-NF-κB (3033S), phospho-IκBα (9246S), and total IκBα (4814S) were from Cell Signaling Technologies (Danvers, MA, USA). Total NF-κB C-20 (sc-372) was from Santa Cruz Biotechnologies (Dallas, TX, USA), and mouse β-actin (dilution 1/10,000) (Sigma-Aldrich, A5441). Clarity™ western ECL substrate (Bio-Rad Laboratories 10-5061) was used according to the manufacturer’s instructions to reveal positive bands visualized using Bio-Rad ChemiDoc. For Bcl-2 and cleaved PARP-1, HCT116 cells were plated in 6-well plates (200,000 cells per well) for 24 h, and treated with compounds 1 and 2 at 10, 25, and 50 µM for 72 h. Supernatants and cells were collected and lysed using RIPA lysis buffer containing inhibitors of protease. Western blot of Bcl-2 and cleaved PARP-1 was performed using 25 µg of total protein with a rabbit polyclonal antibody anti-Bcl-2 (1/500) (Santa Cruz Biotechnology, sc-492), rabbit polyclonal antibody anti-PARP-1 (1/1000) (Santa Cruz Biotechnology, sc-7150), and mouse anti-β-actin (dilution 1/10,000) (Sigma-Aldrich, A5441).
Densitometric analyses were performed using ImageJ software (NIH, MA, USA). The ratio of the different analyzed bands to β-actin was determined and data are represented as fold change compared to the LPS-treated cells. Percentage of viable cells for proliferation assay was determined as percentage to control (non-treated cells). For TUNEL assay, apoptotic cells were quantified, and results were expressed as percentage to positive cells (cleaved DNA) compared to control (non-treated cells). Statistical analysis was performed using one-way ANOVA, followed by Dunnett’s multiple comparisons test using GraphPad Prism software. Differences were considered significant when p < 0.05.
In general terms: In western blotting, separated proteins are transferred to a membrane and probed.

For series [2], the system named is IL-6 mRNA. In words: LPS-dependent IL-6 mRNA in THP-1-derived macrophages (RT-PCR). It counts as cell-based, human. As to conditions: 50 µM, 10 ng/ml LPS 6 h. The protocol:
F i g u re S3: Eff ect of benzofuran compounds on the lev els of LP S -dependent mRNA of CCL2 and IL-6 in THP-1 –deriv ed macrophages. Human-monoc yti c cell l ine-THP-1 wer e treat ed with PMA (25 nM for 48 hours) th en in cub ated with 50 μM compounds for 30 minutes b efo re the addit ion of 10 ng/ml LP S fo r 6 hours. Gene ex pression of IL6 and CCL2 were measur ed by RT-PCR and the v alu es wer e nor mal ized to GAPDH. Results represent means ± SEM by one way ANOVA followed by Dunnett test.

Series [3] can be described thus: Toxicity on macrophages (BMDM), WST-1 assay. The conditions noted are these: C57BL/6J, mouse, bone marrow-derived macrophages (BMDM), read-out: macrophage viability. It counts as cell-based, C57BL/6J mice. As to the method:
WST-1 assay (Sigma-Aldrich, 5015944001) was used to determine the toxicity of the synthesized compounds on BMDM and HCT116 (ATCC, CCL-247), kindly provided by Dr. Nadine Darwiche, Department of Biochemistry and Molecular Genetics, American University of Beirut, Lebanon. Briefly, macrophages (50,000 cells per well) and HCT116 (20,000 cells per well) were plated in a 96-well plate in RPMI 1640 culture medium containing 10% fetal bovine serum (FBS) and grown for 24 h. Cells (in triplicates) were treated with 10 or 50 μM of the compounds for macrophages, and 50 or 100 μM for HCT116. Culture medium without cells and cells without treatment were used as basal and maximal activity, respectively. Results were expressed as percentage of cells without treatment.
F i g u re S1: E ff e c t of fluorin at ed benzofuran derivatives on m acrophages
viabilit y. C ells in cub at ed with 10 and 50 μM of benzofuran d eri vativ es
(compounds 1 to 9) bel onging to groups І, II, III and IV for 24 hours. Cell
viabilit y w as det ermin ed by WST-1 assay. Non-t r eated m acrophages wer e used
as cont rol. Results were shown as mean ± SEM (n=3) . *p< 0.05 comp ar ed to the
vehicle –treated cells (basal), one-way ANOVA followed by Dunnett’s test.
(1 picture or pasted object on this page, not shown here)

For series [4], the system named is PGE2. In words: PGE2 release in LPS-treated macrophages (BMDM). It counts as cell-based, C57BL/6J mice. As to conditions: 10 µM for compounds 1, 7, 9, 50 µM for others, 10 ng/mL LPS 24 h. As to the method: C57BL/6J (10–15 weeks old) male mice were obtained from the animal care facility at the American University of Beirut. All animal procedures were performed following the recommendations of the IACUC (Institutional Animal Care and Use Committee approval 16-09-M379). BMDMs were prepared and characterized as described previously by our group. BMDMs were isolated from C57BL/6J mice by flushing the femur and tibia with RPMI-1640 culture media (Sigma-Aldrich R7388), and cells were collected and centrifuged at 300× g for 5 min. The supernatant was discarded, and the pellet was resuspended in 2 mL red blood lysis 10% (Sigma-Aldrich R7767) medium in PBS and incubated for 5 min at room temperature. After diluting the suspension of cells with 5 mL of RPMI containing 10% FBS and 1% penicillin–streptomycin, cells were centrifuged at 300× g for 5 min, and the cell pellet was resuspended in RPMI media containing 10% FBS supplemented with 15% L929-conditioned medium containing macrophage-colony stimulating factor (M-CSF1) and plated on […]. Cells were allowed to proliferate and differentiate for 5–6 days. Cells were harvested, washed, and allowed to adhere overnight in RPMI containing 10% FBS for treatment. Cells were previously characterized by flow cytometry as macrophages using this method. […] Cells were plated at 0.8 × 10^6 cells per 3.8 cm^2 well [27].
BMDMs were then treated with different concentrations of the benzofuran and dihydrobenzofuran derivatives for 30 min prior to the addition of 10 ng/mL LPS for 24 h. […] The supernatants were assessed for IL-6, PGE2, CCL2, and nitrite, the stable derivative of NO, as described previously.
(§1) IL-6, CCL2, nitrite (for NO), and PGE2 concentrations from 3–5 independent experiments were expressed as percentage of LPS alone and as mean ± SEM. COX activity was determined as percentage of PGE2 produced from exogenous arachidonic acid. Curve fitting and calculation of IC50 values were performed using GraphPad Prism (version 9.5.1 Software, La Jolla, CA, USA).

Series [5] deals with T1, COX-1 (Homo sapiens, UniProt P23219).
T1 construct: expressed in transfected cells
T1 sequence (P23219 24-599): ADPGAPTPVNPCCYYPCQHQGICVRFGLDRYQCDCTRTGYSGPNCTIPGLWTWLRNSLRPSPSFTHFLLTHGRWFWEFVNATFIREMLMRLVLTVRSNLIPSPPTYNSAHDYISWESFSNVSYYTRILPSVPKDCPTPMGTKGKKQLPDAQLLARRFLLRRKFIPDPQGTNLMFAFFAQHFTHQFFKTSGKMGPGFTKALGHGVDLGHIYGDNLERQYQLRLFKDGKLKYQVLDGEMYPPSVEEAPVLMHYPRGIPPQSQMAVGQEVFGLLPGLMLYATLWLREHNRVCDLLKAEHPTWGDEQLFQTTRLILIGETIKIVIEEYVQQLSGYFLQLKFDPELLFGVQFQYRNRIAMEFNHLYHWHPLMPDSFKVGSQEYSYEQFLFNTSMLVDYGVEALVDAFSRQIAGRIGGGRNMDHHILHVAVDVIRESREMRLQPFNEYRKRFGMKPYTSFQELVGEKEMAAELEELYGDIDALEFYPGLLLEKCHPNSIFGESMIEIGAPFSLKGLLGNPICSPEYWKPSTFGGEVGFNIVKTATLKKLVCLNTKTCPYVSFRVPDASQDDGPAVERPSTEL
In words: COX-1 activity: PGE2 from exogenous arachidonic acid in HEK-293 cells overexpressing COX-1. It counts as cell-based. As to conditions: 10 µM for compounds 1, 7, 9, 50 µM for others; 10 µM arachidonic acid. As to the method:
Figure 3 Effects of the fluorinated benzofuran and dihydrobenzofuran on COX-1 and COX-2 activities. (A) Illustration for COX-1 activity assay. HEK-293 cells stably overexpressing COX-1 are treated with the nine derivatives of benzofuran at concentrations of only 10 µM for compounds 1, 7, and 9, and 50 µM for the other compounds, 30 min prior to the addition of 10 µM arachidonic acid (AA). […] (B) COX-1 activity. […] Levels of PGE2 were very low in the absence of arachidonic acid (0.04 ± 0.01 ng/mL) and 104.3 ± 16.7 ng/mL for 10 µM AA. (C) Illustration for COX-2 activity determination. Macrophages are treated with 10 µM of aspirin (ASA) for 30 min to block basal COX activity, washed, and treated with 10 ng/mL LPS for 24 h to induce COX-2. Cells are then washed and incubated 30 min with 50 µM of the different compounds prior to the addition of 10 µM of AA. The produced PGE2 mainly reflects COX-2 activity. (D) COX-2 activity. Percentage of LPS-treated cells was calculated, and data are represented as mean ± SEM (n = 4); * p < 0.05 versus AA for COX-1 activity, and versus LPS + ASA + AA for COX-2 activity (one-way ANOVA followed by Dunnett’s test). […] Levels of PGE2 were very low in the absence of arachidonic acid (0.06 ± 0.01 ng/mL) and 71.7 ± 5.7 ng/mL for 10 µM AA.
COX-1 and COX-2 activities were performed as described previously in human embryonic kidney cell line (HEK-293) stably overexpressing COX-1 [19] and in macrophages, respectively. […] For both COX-1 and COX-2 assays, the benzofuran compounds were then added to the cells for 30 min prior to the incubation with 10 µM arachidonic acid for another 30 min. PGE2 was then measured using an enzyme immunoassay, as described previously.
as §1

Regarding `O=C(O)/C=C1/Oc2ccccc2C1(F)F` [Compound 4], in series [1], the “effect on LPS-induced COX-2 protein expression” value is on record as “loss of this inhibitory effect”. The “effect on IL-6 mRNA levels” value in series [2] is recorded as “to a lesser extent”.
As for `COC(=O)C1CC(C)=C(C)CC12Oc1ccc(Br)cc1C2(F)F` (stereo not drawn) [Compound 9], in series [3], the viability (as a rule, a read-out of living cells in per cent, often relative to untreated cells) at 24 h, 50 µM amounted to 50%.
Take `COC(=O)CC1(SCCO)Oc2ccc(Br)cc2C1(F)F` (stereo not drawn) [Compound 7]: the “effect on PGE2 production in response to LPS” value in series [4] is recorded as “loss of the inhibitory activity”. Besides, the “effect on COX-1 activity” value in series [5] is on record as “loss of the inhibitory activity”. For the same molecule, the viability at 24 h, 50 µM in series [3] came to 50%.
